Our source for the AC50, AbsAC35 and IC50 values is ChEMBL document CHEMBL1201862, “PubChem BioAssay data set” (2004).

One assay concerns the target Paired box protein Pax-8 (Homo sapiens, UniProt Q06710). Briefly: inhibitors of PAX8-driven TPO luciferase reporter, dose response, RMG-I cells, cherry-pick (AID 687027).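 Further: luciferase reporter driven by Pax8 target thyroperoxidase promoter measured by SteadyGlo luminescence.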 The assay is classed as functional, cell-based. For orientation: Reporter assays use an easily measured gene product as a stand-in for the process of interest.
Assay [1] in a line: cytotoxicity in OVCAR8 ovarian cancer cells, dose response, PAX8 project, cell-based, plate reader, dry powder samples (AID 743197). The assay is classed as functional. The conditions noted are these: OVCAR-8.
The nature of assay [2]: IGROV1 ovarian cancer cell cytotoxicity, dose response, PAX8 inhibitor project, plate reader, dry powder samples (AID 743043). The assay is classed as functional, cell-based. As to conditions: IGROV-1.
Assay [3] in a line: lymphoblastoid cell cytotoxicity, dose response, cytotoxicity control, plate reader, dry powder, set 2 (AID 624367). Format: functional.
Assay [4] addresses Metabotropic glutamate receptor 3 (Rattus norvegicus, UniProt P31422). Briefly: mGlu3 NAM potency via calcium readout, dose response, mGlu3 NAM project, TREx293 cells, Galpha15, calcium flux (AID 651840). The assay is classed as functional.
Assay [5] is described as follows: HepG2 cell cytotoxicity, dose response, cytotoxicity control, cherry-picks, set 5 (AID 1053118). The assay is classed as functional, cell-based.
A short description of assay [6]: HEK293 cell cytotoxicity, dose response, cytotoxicity control, cherry-picks, set 5 (AID 1053117). Format: functional, cell-based.
The nature of assay [7]: MC4R antagonists, dose response, counter-screen for LGR2 antagonist project, cell-based, plate reader, cherry pick (AID 743444).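 Further: transfected HEK 293 cells stimulated with alpha-MSH peptide; potency of inhibitors of the alpha-MSH evoked signal.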 The assay is classed as functional. (In general: Counterscreens check selectivity or assay interference.)
The nature of assay [8]: A549 cell cytotoxicity, dose response, cytotoxicity control, plate reader, cherry-pick, antagonist series (AID 743412). Format: functional, cell-based.
A short description of assay [9]: HEK293 cell cytotoxicity, dose response, cytotoxicity control, plate reader, cherry-picked samples (AID 743446). The assay is classed as functional, cell-based.
A short description of assay [10]: LGR2 antagonists, dose response, cell-based, HEK293, CRE-luciferase reporter, cherry pick (AID 743342). The assay is classed as functional.
Assay [11] can be described thus: HepG2 cell cytotoxicity, dose response, cytotoxicity control, plate reader, cherry-pick, antagonist series (AID 743416). The assay is classed as functional, cell-based.
In assay [12] the target is T1, High affinity choline transporter 1 (Homo sapiens, UniProt Q9GZV3).
T1 sequence (Q9GZV3 whole entry): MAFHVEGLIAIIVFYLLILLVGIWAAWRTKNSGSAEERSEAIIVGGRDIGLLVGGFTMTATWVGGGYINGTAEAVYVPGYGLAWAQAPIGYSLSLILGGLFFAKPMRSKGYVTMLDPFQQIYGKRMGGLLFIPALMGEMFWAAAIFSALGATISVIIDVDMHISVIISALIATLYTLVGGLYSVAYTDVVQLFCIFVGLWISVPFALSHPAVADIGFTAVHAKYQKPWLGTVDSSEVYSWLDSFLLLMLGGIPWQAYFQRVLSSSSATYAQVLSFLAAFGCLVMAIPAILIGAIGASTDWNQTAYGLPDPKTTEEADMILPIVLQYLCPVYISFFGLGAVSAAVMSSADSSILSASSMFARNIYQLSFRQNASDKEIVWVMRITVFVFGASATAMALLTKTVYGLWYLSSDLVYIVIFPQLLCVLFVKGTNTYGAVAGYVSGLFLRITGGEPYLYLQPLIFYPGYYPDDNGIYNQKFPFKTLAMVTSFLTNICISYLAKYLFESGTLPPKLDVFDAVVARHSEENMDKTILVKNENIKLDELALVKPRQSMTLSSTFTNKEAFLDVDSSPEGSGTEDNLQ
As to the kind of experiment: CHT choline uptake inhibitors, dose response, cell-based, HEK-293 hCHT, [3H]-choline uptake (AID 652177). The assay is classed as functional.

In assay [13] the target is Potassium channel subfamily K member 9 (Homo sapiens, UniProt Q9NPC2). As to the kind of experiment: TASK3 (KCNK9) channel inhibitors, thallium flux, SAR follow-up, selectivity assay for TASK1 inhibitor project, cell-based, FluxOR thallium flux, concentration-response (AID 652211).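 Further: potency is for inhibitors of the channel.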 Format: functional.
Assay [14] has as its target Potassium channel subfamily K member 3 (Homo sapiens, UniProt O14649). Briefly: TASK1 (KCNK3) potassium channel inhibitors, SAR follow-up, CHO cells, FluxOR thallium flux (AID 652212). The assay is classed as functional.
Assay [15] is described as follows: HepG2 cell cytotoxicity, dose response, cytotoxicity control, luminescence plate reader, powder samples, set 2 (AID 651860). Format: functional, cell-based.
Assay [16] is described as follows: A375 melanoma cell viability loss, dose response, counter-screen for MITF inhibitor project, CellTiter-Glo luminescence, dry powder, set 4 (AID 624364).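 Further: A375 melanoma cells are MITF independent so this is a counter screen.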 The assay is classed as functional, cell-based. The conditions noted are these: A-375.
Assay [17] in a line: A375 melanoma cell cytotoxicity, dose response, counter-screen for MITF inhibitor project, CellTiter-Glo luminescence, dry powder, set 2 (AID 624489).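 Further: actives are compounds lowering A375 viability meaning general cytotoxicity.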 Format: functional, cell-based. As to conditions: A-375.

Structures are written as SMILES. Calls of active or inactive are those of the source.

Chain of Metabotropic glutamate receptor 3 (P31422 whole entry): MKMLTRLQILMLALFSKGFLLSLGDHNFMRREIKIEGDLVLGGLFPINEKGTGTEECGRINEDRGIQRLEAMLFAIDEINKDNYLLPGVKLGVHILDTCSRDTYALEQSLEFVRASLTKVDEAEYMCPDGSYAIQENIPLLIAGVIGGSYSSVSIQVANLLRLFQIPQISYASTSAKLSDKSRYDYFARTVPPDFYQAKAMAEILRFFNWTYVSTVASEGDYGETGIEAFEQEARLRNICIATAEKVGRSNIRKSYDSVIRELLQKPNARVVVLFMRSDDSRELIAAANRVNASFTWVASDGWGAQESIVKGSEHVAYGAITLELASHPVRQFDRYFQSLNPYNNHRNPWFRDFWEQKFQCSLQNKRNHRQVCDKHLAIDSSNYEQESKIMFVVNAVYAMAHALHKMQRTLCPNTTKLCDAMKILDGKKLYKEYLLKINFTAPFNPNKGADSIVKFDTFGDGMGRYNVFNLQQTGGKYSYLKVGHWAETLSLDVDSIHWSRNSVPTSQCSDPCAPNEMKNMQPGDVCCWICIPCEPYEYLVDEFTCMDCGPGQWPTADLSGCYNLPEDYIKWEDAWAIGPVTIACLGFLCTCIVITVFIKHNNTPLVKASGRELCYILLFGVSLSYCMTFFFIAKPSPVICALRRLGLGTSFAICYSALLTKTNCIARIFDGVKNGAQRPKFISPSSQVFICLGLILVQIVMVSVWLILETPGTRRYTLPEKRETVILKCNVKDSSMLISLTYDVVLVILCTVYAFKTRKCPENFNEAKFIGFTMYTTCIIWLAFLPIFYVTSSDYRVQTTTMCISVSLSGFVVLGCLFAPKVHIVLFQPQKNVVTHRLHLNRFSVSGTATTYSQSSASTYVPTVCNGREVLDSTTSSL
Chain of Potassium channel subfamily K member 9 (Q9NPC2 whole entry): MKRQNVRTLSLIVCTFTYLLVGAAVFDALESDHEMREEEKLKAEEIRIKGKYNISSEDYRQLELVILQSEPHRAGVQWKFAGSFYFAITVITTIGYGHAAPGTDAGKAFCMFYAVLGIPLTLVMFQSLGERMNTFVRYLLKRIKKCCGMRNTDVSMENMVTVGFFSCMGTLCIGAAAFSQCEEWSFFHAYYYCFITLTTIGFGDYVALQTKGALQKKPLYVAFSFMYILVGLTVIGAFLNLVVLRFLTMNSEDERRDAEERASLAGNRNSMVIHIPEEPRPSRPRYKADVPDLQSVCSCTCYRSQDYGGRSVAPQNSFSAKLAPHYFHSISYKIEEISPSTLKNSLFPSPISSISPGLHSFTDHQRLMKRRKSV
Chain of Potassium channel subfamily K member 3 (O14649 whole entry): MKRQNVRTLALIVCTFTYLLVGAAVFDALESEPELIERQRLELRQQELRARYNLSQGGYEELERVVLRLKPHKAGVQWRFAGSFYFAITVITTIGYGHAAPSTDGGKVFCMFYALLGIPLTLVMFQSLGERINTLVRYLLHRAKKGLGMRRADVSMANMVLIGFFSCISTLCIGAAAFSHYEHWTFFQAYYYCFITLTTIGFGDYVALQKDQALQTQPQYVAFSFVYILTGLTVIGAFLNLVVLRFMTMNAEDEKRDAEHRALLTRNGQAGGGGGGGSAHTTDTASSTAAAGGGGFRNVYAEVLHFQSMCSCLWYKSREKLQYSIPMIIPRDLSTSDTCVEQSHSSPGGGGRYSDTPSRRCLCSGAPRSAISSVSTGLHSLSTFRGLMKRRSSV
Chain of Paired box protein Pax-8 (Q06710 whole entry): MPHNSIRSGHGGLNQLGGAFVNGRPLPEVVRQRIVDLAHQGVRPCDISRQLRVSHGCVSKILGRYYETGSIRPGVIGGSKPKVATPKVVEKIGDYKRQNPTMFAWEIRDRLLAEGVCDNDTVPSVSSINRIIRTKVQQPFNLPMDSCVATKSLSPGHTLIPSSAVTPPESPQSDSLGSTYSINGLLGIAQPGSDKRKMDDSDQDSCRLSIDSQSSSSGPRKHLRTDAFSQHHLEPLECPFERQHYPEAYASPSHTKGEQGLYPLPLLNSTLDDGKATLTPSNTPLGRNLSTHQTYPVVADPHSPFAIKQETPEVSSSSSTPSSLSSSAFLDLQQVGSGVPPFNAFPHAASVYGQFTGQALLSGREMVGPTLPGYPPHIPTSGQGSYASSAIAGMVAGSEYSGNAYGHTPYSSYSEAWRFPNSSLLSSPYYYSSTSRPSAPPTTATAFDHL

As usually defined, the AC50 is the concentration giving half of the maximal activity seen. `COc1cccc(-c2ccc([C@H]3[C@@H](CO)N(C(=O)c4ccccn4)[C@H]3C#N)cc2)c1`: the AC50 was 7.31 µM (active) at Paired box protein Pax-8, 39.2 µM (active) in assay [1] and 68.1 µM (active) in assay [2].
With `Cc1cc(C(=O)Nc2ccc3c(c2)C(=O)N(C)[C@@H]2CC[C@H](CC(=O)NCc4ccc(-c5ccccc5)cc4)O[C@@H]2CO3)no1`, the AbsAC35 in assay [3] came to 211.39 µM.
What is called IC50 is the point on the concentration scale where inhibition reaches its midpoint. For the compound `COc1ccc(C#Cc2ccc(C(=O)N3CCC(=O)C(C)(C)C3)cc2)cc1`, the IC50 in assay [4] worked out at 3.13 µM.
For the compound `CO[C@@H]1CN(C)C(=O)c2cc(NC(=O)Nc3cc(Cl)cc(Cl)c3)ccc2OC[C@H](C)NC[C@@H]1C`, the AC50 in assay [5] is 13.1 µM (active); in assay [6], 15.8 µM (active).
With `COc1ccc(NC(=O)Nc2ccc3c(c2)C(=O)N([C@H](C)CO)C[C@H](C)[C@H](CN(C)CC2CCCCC2)OCCCC[C@H](C)O3)cc1`, the half-maximal activity concentration (AC50) is 42.7 µM (active) in assay [7]; 17.9 µM (active) in assay [8]; 40.3 µM (active) in [9]; 38.9 µM (active) in assay [10]; 13.7 µM (active) in [11].
Consider `CCn1cc(CNC(=O)c2ccc(OC)c(OC3CCN(C(C)C)CC3)c2)cn1`, for which, in assay [12], the IC50 was 6.81 µM (active).
On to `COc1cccc(OC)c1C(=O)Nc1cccc(NC(=O)c2cccc(C)c2)c1`, for which the IC50 was 19.2 µM (active) in [13] and 0.148 µM (active) in [14].
Consider `Cc1ccc(S(=O)(=O)Nc2cc(C(C(=O)OC(C)C)C(=O)C(F)(F)F)c(O)c3ccccc23)cc1` (stereo not drawn), for which the AC50 in assay [15] is > 52 µM (inactive).
Regarding `C=CCNC1=C(NCCN(CC)CC)C(=O)c2ccccc2C1=O`, the AC50 was 36 µM (active) in [16] and 17.4 µM (active) in assay [17].
